Measured values: PMC5201116, “Bioactive Flavonoids and Catechols as Hif1 and Nrf2 Protein Stabilizers - Implications for Parkinson’s Disease” (Aging and Disease, 2016)

Legend:
[1] = test system: HIF1 ODD-luc reporter (SH-SY5Y cell line); test: HIF1 ODD-luc reporter assay; format: cell-based; settings: for fold induction at 10 µM: 3 h, read-out: ODD-luc fold activation; for fold induction at 10 µM / ODD-luc fold activation: 3 h incubation, at 10 µM
Procedure: (§1) SH-SY5Y cell lines stably expressing HIF1 ODD-luc or Neh2-luc reporters were grown in the DMEM/F12 supplemented with GlutaMAX (Thermo Fisher Scientific) containing 10% FBS, 100 U/ml penicillin, and 100 μg/ml streptomycin and plated into 384-well white flat-bottom plates at 7,000 cell/well in 30 µl serum and incubated overnight at 37°C, 5% CO2. The next day compounds were added to a final concentration of 10 µM and the plates were incubated for 3 hours at 37°C. Reporter activation after 3 h incubation with the studied compound was compared to that for ciclopirox (HIF1 ODD-luc reporter) or TBHQ (Neh2-luc reporter), taken as 100%. Luciferase reporter activity was measured with a SteadyGlo reagent from Promega providing stable reading for 1 h.
(§2) Cells were plated at the density of 25,000 cell per well using a WellMate multichannel dispenser from Matrix (Thermo Fisher Scientific, Waltham, MA) and grown overnight on DMEM/F12+GlutaMAX (100 µl per well). Then an inhibitor was added, and the plates were incubated for a fixed time interval; the medium was removed, cells lysed, and luciferase activity was measured on a SpectraMax M5e platereader (Molecular Devices, Sunnyvale, CA) with BrightGlo™ reagent (Promega, Madison, WI). The reporter activation was normalized to the background luminescence. The effect of 0.5 mM N-acetylcysteine (NAC) was studied by simultaneous addition of 5 µL of 10 mM stock of NAC in water and 2 µL of 50x stock solutions of a flavonoid in DMSO.

[2] = test system: HRE-luciferase reporter (HT22 hippocampal cell line); test: HRE-luc reporter assay; format: cell-based; settings: at 10 µM; for fold induction at 10 µM: Mus musculus, HT-22, 3 h, read-out: HRE-luc fold activation
Source text: A promoter-reporter construct that contained 68 bp of a known hypoxia and HIF-1 regulated gene, enolase, containing a wild type hypoxia response element (HRE, 5’-RCTGT-3’), is a widely used approach for screening for HIF activators of different mechanism of action. A cell-based assay with HRE-luciferase reporter system is based on transfected immortalized hippocampal cell line (HT22) and allows screening for a broad spectrum of compounds that include: activators of HIF transcription; activators of HIF binding to HRE; and effectors of HIF protein stability (PHD inhibitors, pVHL & proteasome inhibitors). The assay was performed the same way as for HIF ODD-luc reporter except the cells were plated at the density of 10,000 cell per well and incubated overnight.

[3] = test system: Neh2-luc reporter (SH-SY5Y cell line); test: Neh2-luc reporter assay; format: cell-based; settings: for EC50: Neh2-luc
Procedure: as §1, §2

[4] = Iron binding constant, calcein displacement assay; format: physicochemical; settings: for Iron complex Diss. Const: calcein displacement
Source text: Calcein displacement assay in the presence of varied concentrations of flavonoids and catechols has been used. Calcein release from its complex with iron was monitored by fluorescence as described in [26].

[5] = Non-enzymatic ferricyanide reduction rate constant; format: physicochemical; settings: 1 mM ferricyanide, pH 7.0
Procedure: The rate of ferricyanide reduction by individual flavonoids was measured spectrophotometrically at 420 nm with the fixed concentration of ferricyanide (1 mM) and varied concentrations of a flavonoid in Potassium-phosphate buffer, pH 7.0. The rate constant for direct ferricyanide reduction was calculated from the slope of the dependence reaction rate vs flavonoid concentration and used as a measure of flavonoid non-specific reducing power.

[6] = set-up: method as in PMID 17112238; settings: cited from earlier work
[7] = test system: primary neuronal cultures treated with 5 mM HCA; test: Glutathione depletion (HCA) model, MTT viability; format: cell-based, rat; settings: for EC50: Rattus norvegicus, results not shown, read-out: EC50 of protection in glutathione depletion model
Procedure: Primary neuronal cultures were prepared from the forebrains of Sprague-Dawley rat embryos (E17) and plated on 96 well plates at a 10^6 cells/ml density. After 24 hours, cells were rinsed with warm PBS and then placed in minimum Essential Medium (MEM; Life Technologies, Grand Island, NY) containing 5 mM HCA in the presence of a compound of interest at varied concentrations. Cells were incubated for 24 h or longer to see 90% cell death in HCA treated controls. Viability was assessed by the MTT (4,5-dimethylthiazol-2-yl)-2,5-diphenyltetrazolium bromide) assay.

Compound	fold induction at 10 µM ([1]; Homo sapiens, SH-SY5Y)	fold induction at 10 µM [2]	Neh2-luc fold activation ([3]; at 10 µM, 3 h incubation)	Iron complex Diss. Const [4]	FC red Rate Const [5]	ODD-luc fold activation [1]	EHOMO [6]	further results
O=c1c(O)c(-c2ccccc2)oc2ccccc12 [compound 1, 3-Hydroxyflavone]	1.5 ± 0.2	1.5 ± 0.2	inactive	2.0 ± 0.2 µM	inactive			Neh2-luc fold activation ([3]; at 10 µM, 3 h incubation, listed as 3-hydroxyflavone): completely inactive; Iron complex Diss. Const ([4]; listed as 3-Hydroxyflavone): ca. 2 µM
O=c1c(O)c(-c2ccccc2)oc2cc(O)ccc12 [compound 2, 3,7-Dihydroxy-]				2.5 ± 0.3 µM	inactive			
O=c1c(O)c(-c2ccc(O)cc2)oc2ccccc12 [compound 3, 3,4'-Dihydroxy-]				2.5 ± 0.2 µM	Inactive	Inactive		HRE-luc fold activation [2]: Inactive
O=c1c(O)c(-c2ccccc2)oc2cccc(O)c12 [compound 7, 3,5-Dihydroxy-]	1.3 ± 0.2	2 ± 0.2	Inactive	2.5 ± 0.3 µM	inactive			
O=c1c(O)c(-c2ccccc2)oc2cc(O)cc(O)c12 [compound 8, Galangin]		1.3 ± 0.2	Inactive	3.5 ± 0.4 µM	48000 ± 6000 M⁻¹ s⁻¹	Inactive	-8.90 eV	
O=c1c(O)c(-c2ccc(O)cc2)oc2cc(O)cc(O)c12 [compound 9, Kaempferol]		1.5 ± 0.2		2.5 ± 0.3 µM	369000 ± 42000 M⁻¹ s⁻¹	Inactive	-8.74 eV	EC50 ([3]; Homo sapiens, SH-SY5Y): 5 µM; fold induction at 10 µM ([3]; Homo sapiens, SH-SY5Y, at 10 µM, 3 h incubation, read-out: Neh2-luc fold activation): 15 ± 2; drop in Neh2-luc reporter activation with NAC ([3]; simultaneous addition of 0.5 mM NAC, results not shown): 2 fold
O=c1cc(-c2ccccc2)oc2cc(O)cc(O)c12 [compound 15, Chrysin]		1.2 ± 0.15	Inactive	Inactive		Inactive	-9.25 eV	
O=c1cc(-c2ccc(O)cc2)oc2cc(O)cc(O)c12 [compound 16, Apigenin]		1.3 ± 0.15	Inactive	Inactive		Inactive	-9.15 eV	
O=c1cc(-c2ccccc2)oc2c(O)c(O)ccc12 [compound 20, 7,8-Dihydroxyflavone]	1.5 ± 0.2	3.6 ± 0.4	Inactive	0.7 ± 0.1 µM			-9.23 eV	iron dissociation constant [4]: ca. 700 nM
O=c1c(-c2ccc(O)c(O)c2)coc2cc(O)ccc12 [compound 27, 3’-Hydroxy-daidzein]			15±2 fold	3.5 ± 0.4 µM		2.5±0.3 fold		HRE-luc fold activation [2]: 2.5±0.3 fold; EC50 [3]: 5 µM; Neh2-luc fold activation ([3]; at 10 µM, 3 h incubation, listed as 3’-hydroxydaidzein): active; neuroprotection in glutathione depletion model [7]: protective; concentration at which neuroprotection begins ([7]; glutathione depletion model, Fig. 5): 2.5 µM
N[C@@H](Cc1ccc(O)c(O)c1)C(=O)O [compound 29, 3,4-Dihydroxy-L-phenylalanine, reference compound]	2 ± 0.25	1.7 ± 0.2	Inactive	2.5 ± 0.3 µM				EC50 ([1]; Homo sapiens, SH-SY5Y): 15 µM; EC50 ([3]; Homo sapiens, SH-SY5Y): 20 µM; EC50 [7]: 6 µM
C[C@@](Cc1ccc(O)c(O)c1)(NN)C(=O)O [compound 31, N-Aminomethyldopa, reference compound]			Inactive	2.5 ± 0.3 µM		Inactive		HRE-luc fold activation [2]: Inactive; EC50 ([3]; Homo sapiens, SH-SY5Y): 20 µM; EC50 [7]: > 20 µM
